Measurements reported in US20230295163A1, “TETRACYCLIC DERIVATIVE, METHOD FOR PREPARING SAME AND USE THEREOF IN MEDICINE” (ZHEJIANG HISUN PHARMACEUTICAL CO., LTD., priority 2020, published 2023).
pIC50: −log10 of the molar value. Like-named read-outs stand apart in the source and are kept apart here.

Legend:
NCI-H358 cells = assay: Inhibition of NCI-H358 cell proliferation (CellTiter-Glo); type: cell-based, human; conditions: 120 h of culture, read-out: IC50 inhibiting NCI-H358 cell proliferation
Method: The following method was used to determine the effect of the compounds of the present disclosure on the proliferation of NCI-H358 cells. NCI-H358 cells (containing KRAS G12C mutation) were purchased from the Cell Resource Center, Shanghai Institutes for Biology Sciences, Chinese Academy of Sciences, and cultured in RPMI 1640 medium containing 10% fetal bovine serum, 100 U penicillin, 100 μg/mL streptomycin and 1 mM sodium pyruvate. Cell viability was determined by CellTiter-Glo® Luminescent Cell Viability Assay Kit (Promega, Cat. No. G7573).
The experiment was conducted according to the steps in the kit instruction, which is briefly described as follows: The test compound was first prepared with DMSO into a 10 mM stock solution, which was then diluted with medium into a test sample with a final concentration of the compound ranging from 1000 nM to 0.015 nM Cells in the logarithmic growth phase were inoculated into a 96-well cell culture plate at a density of 800 cells per well, cultured overnight at 37° C. in a 5% CO2 incubator, and then added with the test compound for 120 h of culture. After the culture was completed, 50 μL of CellTiter-Glo detection solution was added to each well, shaken for 5 min and left to stand for 10 min. Subsequently, the luminescence value of the sample in each well was read by a microplate in a luminescence mode. The percentage of inhibition rate of the compounds at each concentration was calculated by comparing with the value of the control group (0.3% DMSO). Then a nonlinear regression analysis on the log concentration-inhibition rate of the compounds was performed by the software GraphPad Prism 5 to obtain the IC50 value of the compound inhibiting NCI-H358 cell proliferation. Table 2 IC50 data of compounds of the present disclosure inhibiting NCI-H358 cell proliferation Compound number IC50(nM)

[1] = molecular target: T1, recombinant human KRAS G12C protein (Homo sapiens, UniProt P01116, G12C); assay: Covalent binding ability to KRAS G12C protein (LC-MS); conditions: 3 μM, 5 min
T1 construct: The recombinant human KRAS G12C protein (aa1-169)
Method: The following method was used to determine the covalent binding ability of the compounds of the present disclosure to recombinant human KRAS G12C protein under in vitro conditions.
The experimental procedure is briefly described as follows: The recombinant human KRAS G12C protein (aa1-169) was prepared with a reaction buffer (20 mM HEPES, 150 mM NaCl, 1 mM MgCl2, 1 mM DTT) at a concentration of 4 μM for later use. The test compound was prepared with DMSO into a 10 mM stock solution, which was then diluted with the reaction buffer for later use. First, 1.5 μL of the test compound diluted with the reaction buffer was added to each well (a final concentration of the reaction system was […]), then added with 23.5 μL of the reaction buffer, mixed well, then added with 25 μL of 4 μM recombinant human KRAS G12C protein for 5 min of incubation at room temperature, and added with 5 μL of acetic acid to stop the reaction. The samples were transferred to injection vials. The ratios of covalent binding between the test compounds and KRAS G12C protein were detected by Agilent 1290/6530 instrument, and the samples were analyzed in a liquid chromatography column (XBridge Protein BEH C4, 300 Å, 3.5 μm, 2.1 mm×50 mm). In the detection process, mobile phase A was 0.1% formic acid aqueous solution, mobile phase B was acetonitrile, the mobile phase elution program was as follows: mobile phase A was kept at 95% at 0-0.5 min, changed to 30% at 2.5 min for 0.5 min, and changed to 95% at 3.1 min for 1.9 min; and flow rate was 0.5 mL/min. Finally, the data was analyzed by MassHunter Workstation Software Bioconfirm Version B.08.00 to obtain the covalent binding rate between the test compound at a concentration of 3 μM and KRAS G12C protein under 5 min of incubation.

[2] = ICR mouse pharmacokinetic research; type: in vivo; conditions: plasma, po, ICR mice, intragastric administration 5 mg/kg
Method: ICR mice were used as test animals. The drug concentrations in plasma at different time points of the compounds in Comparative Example 1 and Example 17 of the present disclosure intragastrically administered to the mice were determined by LC/MS/MS method, to study the pharmacokinetic characteristics of the compounds of the present disclosure in mice.
Preparation for intragastric administration: An appropriate amount of the compound to be tested was weighed, added with an appropriate amount of DMSO: PEG 200=5%: 95% (v/v), shaken by vortex, and prepared into a solution with a final concentration of 0.5 mg/mL.
Intragastric administration group: After fasting overnight, the mice were intragastrically administered at a dose of 5 mg/kg and a volume of 10 mL/kg, and fed 4 h after the administration.
Intragastric administration group: About 100 μL of blood was collected through the orbital vein before administration and at 0.25 h, 0.5 h, 1 h, 2 h, 4 h, 8 h, 12 h and 24 h after administration.
The whole blood sample was put in an EDTA-K2 anticoagulant tube. The plasma was separated by centrifugation at 1500 g for 10 min. The collected upper layer plasma was stored at −40 to −20° C. before analysis.
The content of the compound to be tested in mouse plasma was determined by LC-MS/MS after the compound was intragastrically administered.

[3] = system: p-ERK1/2 in NCI-H358 cells; assay: Inhibition of p-ERK1/2 in NCI-H358 cells (HTRF kit); type: cell-based; conditions: Homo sapiens, hEGF 5 nM stimulation, read-out: IC50 inhibiting p-ERK1/2 in NCI-H358 cells
Description: The following method was used to determine the inhibitory activity of the compounds of the present disclosure on p-ERK1/2 in NCI-H358 cells. In this method, Advanced phospho-ERK1/2 (Thr202/tyr204) kit (Cat. No. 64AERPEH) from Cisbio company was used, and the detailed experimental operation can be referred to the kit instruction. NCI-H358 cells (containing KRAS G12C mutation) were purchased from the Cell Resource Center, Shanghai Institutes for Biology Sciences, Chinese Academy of Sciences.
The experimental procedure is briefly described as follows: NCI-H358 cells were cultured in RPMIH 1640 complete medium containing 10% fetal bovine serum, 100 U penicillin, 100 μg/mL streptomycin and 1 mM sodium pyruvate. […] The 96-well plate was placed on ice for half an hour of lysis, and then the lysate was detected according to the instruction of the Advanced phospho-ERK1/2 (Thr202/tyr204) kit. Finally, the fluorescence intensity of each well at emission wavelengths of 620 nm and 665 nM was measured on a microplate reader in TF-FRET mode at an excitation wavelength of 304 nm, and the ratio of the fluorescence intensity of each well at 665/620 was calculated. The percentage of inhibition rate of the test compounds at each concentration was calculated by comparing with the fluorescence intensity of the control group (0.1% DMSO). […]

T1 sequence (P01116 1-169 isoform P01116-2 G12C): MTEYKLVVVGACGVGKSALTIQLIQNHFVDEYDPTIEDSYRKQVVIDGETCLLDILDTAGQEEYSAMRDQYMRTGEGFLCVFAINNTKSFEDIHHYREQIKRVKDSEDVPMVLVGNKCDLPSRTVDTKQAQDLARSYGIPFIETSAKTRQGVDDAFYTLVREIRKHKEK

SMILES	pIC50 (NCI-H358 cells)	Covalent binding rate (%) [1]	pIC50 (NCI-H358 cells; Homo sapiens, NCI-H358, 120 h)	other results
C=CC(=O)N1C[C@@H]2C(=O)N(C)c3c(c4cc(Cl)c(-c5c(O)cccc5F)nc4n(-c4c(SC)ccnc4C(C)C)c3=O)N2C[C@H]1C [Compound 18]	7.01			
C=CC(=O)N1C[C@@H]2C(=O)N(C)c3c(c4cc(F)c(-c5ccc(F)c6sc(N)nc56)nc4n(-c4c(C)ccnc4C(C)C)c3=O)N2C[C@H]1C [Compound 7, (2R,4aR)-3-acryloyl-10-(2-amino-7-fluorobenzo[d]thiazol-4-yl)-11-fluoro-8-(2-isopropyl-4-methylpyridin-3-yl)-2,6-dimethyl-2,3,4,4a,6,8-hexahydro-1H-pyrazino [1′,2′:4,5]pyrazino[2,3-c][1,8]naphthyridine-5,7-dione]		42.5%	7.17	
C=CC(=O)N1C[C@@H]2C(=O)N(C)c3c(c4cc(Cl)c(-c5c(O)cccc5F)nc4n(-c4c(C)ccnc4C(C)C)c3=O)N2C[C@H]1C (atropisomer, axis not shown) [Comparative Example 1, reference compound]				AUC(0-inf) ([2]; read-out: Area under curve AUC0-∞): 4180 ng·h/mL; Cmax ([2]; read-out: Blood concentration Cmax): 928 ng/mL; half-life ([2]; read-out: Half-life T½ (converted)): 1.95 h
C=CC(=O)N1C[C@@H]2C(=O)N(C)c3c(c4cc(F)c(-c5nc(N)ccc5Cl)nc4n(-c4c(C)ccnc4C(C)C)c3=O)N2C[C@H]1C [Compound 10, (2R,4aR)-3-acryloyl-10-(6-amino-3-chloropyridin-2-yl)-11-fluoro-8-(2-isopropyl-4-methylpyridin-3-yl)-2,6-dimethyl-2,3,4,4a,6,8-hexahydro-1H-pyrazino [1′,2′:4,5]pyrazino[2,3-c][1,8] naphthyridine-5,7-dione]		45.5%	7.13	
C=CC(=O)N1C[C@@H]2C(=O)N(C)c3c(c4cc(Cl)c(-c5c(O)cccc5F)nc4n(-c4c(SC)ccnc4C(C)C)c3=O)N2C[C@H]1C [Compound 16, (2R,4aR)-3-acryloyl-11-chloro-10-(2-fluoro-6-hydroxyphenyl)-8-(2-isopropyl-4-(methylthio)pyridin-3-yl)-2,6-dimethyl-2,3,4,4a,6,8-hexahydro-1H-pyrazino [1′,2′:4,5]pyrazino[2,3-c][1,8] naphthyridine-5,7-dione]	7.40	38.5%		pIC50 [3]: 7.03
